Assay results published in US20180256673A1, “METHODS FOR TREATING FUNGAL INFECTIONS” (priority 2015, published 2018).
Converted amounts (≈) assume the structure as drawn. “And” between values parts separate entries of the source, which are not always exact repeats. Identical values can stand only once. Like-named read-outs stand apart in the source and are kept apart here.

What was measured:
[1] = tested on: C. glabrata ATCC 90030, ATCC 2001; test: Broth microdilution MIC (CLSI), Examples 3 and 4; conditions: for MIC: Nakaseomyces glabratus
Method: Antifungal susceptibility testing. Candida strains were cultured aerobically at 35° C. on SDA plates or in RPMI 1640 broth (pH 7.0). […] MIC assays were performed in triplicate.

C. krusei ATCC 6258 = assay type: cell-based, Candida krusei
Method: Spontaneous mutant selection. […] Three individual colonies from each strain were used to start cultures in RPMI. […] One milliliter aliquots were spread onto SDA plates containing drug with sterile glass beads. Starting viable count was enumerated by triplicate plating of serial dilutions of the starting inoculum. […] Glycerol stocks of putative mutant colonies were stored at −80° C. […] Spontaneous mutation frequencies were calculated by dividing the number of resistant colonies on a given plate by the starting inoculum plated. A subset of mutants (weighted heavily towards those selected with CMP1) were then evaluated by MIC and sequencing of FKS gene hot spot regions.

[2] = tested on: azole-resistant Candida albicans R357 strain; test: microbe, parasite or virus in culture; assay type: cell-based
[3] = tested on: C. parapsilosis vaginal isolates; test: Susceptibility testing of VVC clinical isolates at pH 7 and 4 (CLSI M27-A3); assay type: cell-based, Candida parapsilosis; conditions: 14 isolates, read-out: MIC90
Candida dubliniensis = test: Broth microdilution of invasive fungal isolates (CLSI M27-A3/M38-A2); assay type: cell-based; conditions: 11 isolates
[4] = tested on: C. albicans vaginal isolates; test: Susceptibility testing of VVC clinical isolates at pH 7 and 4 (CLSI M27-A3); assay type: cell-based, Candida albicans; conditions: Candida albicans; for MIC: read-out: MIC; for MIC90: 60 isolates, read-out: MIC90
[5] = tested on: Cryptococcus neoformans var. grubii; test: Broth microdilution of invasive fungal isolates (CLSI M27-A3/M38-A2); assay type: cell-based; conditions: 19 isolates

Q: `CC[C@H](C)C[C@H](C)CCCCCCCCC(=O)N[C@H]1C[C@@H](O)[C@@H](NCCN)NC(=O)[C@@H]2[C@@H](O)CCN2C(=O)[C@H]([C@H](O)CCN)NC(=O)[C@H]([C@H](O)[C@@H](O)c2ccc(O)cc2)NC(=O)[C@@H]2C[C@@H](O)CN2C(=O)[C@H]([C@@H](C)O)NC1=O` [CAS, caspofungin] was tested. Which “Broth MIC” value ([1]; ATCC 2001 wild-type, 24 h, ~50% inhibition) did it give?
A: Its value is 0.25 µg/mL.

Q: What about the MIC ([1]; 24 h, read-out: Broth MIC) of the same compound?
A: The MIC was 0.25 µg/mL (≈ 0.229 µM).

Q: What about the MIC ([1]; ATCC2001|ATCC90030, ATCC 2001 spontaneous mutant, Fks2 HS1 D666N) of the same compound?
A: The MIC was 0.25 µg/mL (≈ 0.229 µM).

Q: What about the MIC ([1]; ATCC2001|ATCC90030, ATCC 2001 spontaneous mutant, Fks2 HS1 D666Y) of the same compound?
A: The MIC was 0.5 µg/mL (≈ 0.457 µM).

Q: What about the MIC ([1]; ATCC2001|ATCC90030, ATCC 2001 spontaneous mutant, Fks2 HS1 R665G) of the same compound?
A: The MIC was 0.5 µg/mL (≈ 0.457 µM).

Q: And the MIC ([1]; ATCC2001|ATCC90030, ATCC 2001 spontaneous mutant, Fks2 HS1 S663F)?
A: The MIC was 1 µg/mL (≈ 0.915 µM).

Q: What about the MIC ([1]; ATCC2001|ATCC90030, ATCC 2001 spontaneous mutant, Fks2 HS1 ΔF659) of the same compound?
A: The MIC was 16 µg/mL (≈ 14.6 µM).

Q: What about the MIC ([1]; ATCC2001|ATCC90030, ATCC 2001 spontaneous mutant, Fks2 HS2 R1378S) of the same compound?
A: The MIC was 0.25 µg/mL (≈ 0.229 µM).

Q: And the MIC ([1]; ATCC2001|ATCC90030, ATCC 90030 spontaneous mutant, Fks2 HS1 D666H)?
A: The MIC was 1 µg/mL (≈ 0.915 µM).

Q: And the MIC ([1]; ATCC2001|ATCC90030, ATCC 90030 spontaneous mutant, Fks2 HS1 ΔF659)?
A: The MIC was 4 µg/mL (≈ 3.66 µM).

Q: What about the Median mutation frequency (C. krusei ATCC 6258) of the same compound?
A: The Median mutation frequency was less than 3.86E−09.

Q: What about the Plate concentration (C. krusei ATCC 6258; SDA, minimum concentration to cleanly inhibit growth) of the same compound?
A: The Plate concentration was 0.5 µg/mL.

Q: And the “Freq. (replicate mutation frequency)” value (C. krusei ATCC 6258; replicate plates 1-3)?
A: Its value is <3.86E−09 (2×) and 3.51E−09.

Q: What about the “Susceptibility (CLSI)” value ([2]; C. albicans R357) of the same compound?
A: The value was “S”.

Q: And the MIC ([2]; Candida albicans)?
A: The MIC was 0.25 µg/mL (≈ 0.229 µM).

Q: And the MIC90 ([3]; pH 4, 24 h)?
A: The MIC90 was 1 µg/mL (≈ 0.915 µM).

Q: And the MIC90 ([3]; pH 4, 48 h)?
A: The MIC90 was 4 µg/mL (≈ 3.66 µM).

Q: What about the MIC90 ([3]; pH 7, 24 h) of the same compound?
A: The MIC90 was 1 µg/mL (≈ 0.915 µM).

Q: And the MIC90 ([3]; pH 7, 48 h)?
A: Its MIC90 is 2 µg/mL (≈ 1.83 µM).

Q: What about the “Cumulative % of isolates inhibited at MIC 0.015 μg/mL” value (Candida dubliniensis) of the same compound?
A: Its value is “(9.1) %”.

Q: And the “Cumulative % of isolates inhibited at MIC 0.03 μg/mL” value (Candida dubliniensis)?
A: The value was “(54.5) %”.

Q: What about the “Cumulative % of isolates inhibited at MIC 0.06 μg/mL” value (Candida dubliniensis) of the same compound?
A: Its value is “(100.0) %”.

Q: What about the “Number of isolates inhibited at MIC 0.015 μg/mL” value (Candida dubliniensis) of the same compound?
A: Its value is 1.

Q: And the “Number of isolates inhibited at MIC 0.03 μg/mL” value (Candida dubliniensis)?
A: Its value is 5.

Q: And the “Number of isolates inhibited at MIC 0.06 μg/mL” value (Candida dubliniensis)?
A: The value was 5.

Q: And the MIC50 (Candida dubliniensis; Candida dubliniensis, read-out: MIC50)?
A: Its MIC50 is 0.03 µg/mL (≈ 0.0274 µM).

Q: What about the MIC90 (Candida dubliniensis; Candida dubliniensis, read-out: MIC90) of the same compound?
A: The MIC90 was 0.06 µg/mL (≈ 0.0549 µM).

Q: And the MIC ([4]; 48 h, pH 4, fluconazole-resistant isolate 1, pH 4, 48 h)?
A: Its MIC is 0.25 µg/mL (≈ 0.229 µM).

Q: And the MIC ([4]; 48 h, pH 4, fluconazole-resistant isolate 2, pH 4, 48 h)?
A: Its MIC is 1 µg/mL (≈ 0.915 µM).

Q: And the MIC ([4]; 48 h, pH 4, fluconazole-resistant isolate 3, pH 4, 48 h)?
A: The MIC was 0.5 µg/mL (≈ 0.457 µM).

Q: And the MIC ([4]; 48 h, pH 4, fluconazole-resistant isolate 4, pH 4, 48 h)?
A: The MIC was 1 µg/mL (≈ 0.915 µM).

Q: And the MIC ([4]; 48 h, pH 4, fluconazole-resistant isolate 5, pH 4, 48 h)?
A: The MIC was 4 µg/mL (≈ 3.66 µM).

Q: And the MIC ([4]; 48 h, pH 4, fluconazole-resistant isolate 6, pH 4, 48 h)?
A: Its MIC is 1 µg/mL (≈ 0.915 µM).

Q: What about the MIC ([4]; 48 h, pH 4, fluconazole-resistant isolate 7, pH 4, 48 h) of the same compound?
A: The MIC was 1 µg/mL (≈ 0.915 µM).

Q: What about the MIC ([4]; 48 h, pH 4, fluconazole-resistant isolate 8, pH 4, 48 h) of the same compound?
A: Its MIC is 0.5 µg/mL (≈ 0.457 µM).

Q: And the MIC ([4]; 48 h, pH 4, fluconazole-resistant isolate 9, pH 4, 48 h)?
A: The MIC was 1 µg/mL (≈ 0.915 µM).

Q: What about the MIC ([4]; 48 h, pH 4, fluconazole-resistant isolate 10, pH 4, 48 h) of the same compound?
A: Its MIC is 1 µg/mL (≈ 0.915 µM).

Q: What about the MIC ([4]; 48 h, pH 7, fluconazole-resistant isolate 1, pH 7, 48 h) of the same compound?
A: The MIC was 0.5 µg/mL (≈ 0.457 µM).

Q: And the MIC ([4]; 48 h, pH 7, fluconazole-resistant isolate 2, pH 7, 48 h)?
A: Its MIC is 0.5 µg/mL (≈ 0.457 µM).

Q: And the MIC ([4]; 48 h, pH 7, fluconazole-resistant isolate 3, pH 7, 48 h)?
A: Its MIC is 0.5 µg/mL (≈ 0.457 µM).

Q: And the MIC ([4]; 48 h, pH 7, fluconazole-resistant isolate 4, pH 7, 48 h)?
A: The MIC was 0.5 µg/mL (≈ 0.457 µM).

Q: What about the MIC ([4]; 48 h, pH 7, fluconazole-resistant isolate 5, pH 7, 48 h) of the same compound?
A: The MIC was 2 µg/mL (≈ 1.83 µM).

Q: And the MIC ([4]; 48 h, pH 7, fluconazole-resistant isolate 6, pH 7, 48 h)?
A: The MIC was 1 µg/mL (≈ 0.915 µM).

Q: What about the MIC ([4]; 48 h, pH 7, fluconazole-resistant isolate 7, pH 7, 48 h) of the same compound?
A: The MIC was 0.5 µg/mL (≈ 0.457 µM).

Q: What about the MIC ([4]; 48 h, pH 7, fluconazole-resistant isolate 8, pH 7, 48 h) of the same compound?
A: Its MIC is 0.5 µg/mL (≈ 0.457 µM).

Q: And the MIC ([4]; 48 h, pH 7, fluconazole-resistant isolate 9, pH 7, 48 h)?
A: The MIC was 2 µg/mL (≈ 1.83 µM).

Q: And the MIC ([4]; 48 h, pH 7, fluconazole-resistant isolate 10, pH 7, 48 h)?
A: Its MIC is 0.5 µg/mL (≈ 0.457 µM).

Q: And the MIC90 ([4]; pH 4, 24 h)?
A: Its MIC90 is 0.5 µg/mL (≈ 0.457 µM).

Q: And the MIC90 ([4]; pH 4, 48 h)?
A: The MIC90 was 1 µg/mL (≈ 0.915 µM).

Q: What about the MIC90 ([4]; pH 7, 24 h) of the same compound?
A: Its MIC90 is 0.5 µg/mL (≈ 0.457 µM).

Q: And the MIC90 ([4]; pH 7, 48 h)?
A: The MIC90 was 1 µg/mL (≈ 0.915 µM).

Q: What about the “Cumulative % of isolates inhibited at MIC 8 μg/mL” value [5] of the same compound?
A: Its value is “(21.1) %”.

Q: What about the “Cumulative % of isolates inhibited at MIC >8 μg/mL” value [5] of the same compound?
A: Its value is “(100.0) %”.

Q: What about the “Number of isolates inhibited at MIC 8 μg/mL” value [5] of the same compound?
A: The value was 4.

Q: And the “Number of isolates inhibited at MIC >8 μg/mL” value [5]?
A: Its value is 15.

Q: What about the MIC50 ([5]; Cryptococcus neoformans, read-out: MIC50) of the same compound?
A: The MIC50 was 8 µg/mL (≈ 7.32 µM).

Q: What about the MIC90 ([5]; Cryptococcus neoformans, read-out: MIC90) of the same compound?
A: The MIC90 was 8 µg/mL (≈ 7.32 µM).
